Assay results reported in ChEMBL document CHEMBL1201862, “PubChem BioAssay data set” (2004).
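How tested: cells in 96-well plates exposed to compound for 48 hours at five concentrations. The concentration for 50% growth inhibition is given as GI50.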 The source made the active and inactive calls. Rule as the data show it: active = GI50 up to about 1.1 µM and inactive = higher.

Key:
Assay in all cases: NCI tumour cell line growth inhibition, 48 h
Hs-578T = tested on: Hs-578T
SK-OV-3 = tested on: SK-OV-3
HCT-116 = tested on: HCT-116
MDA-N = tested on: MDA-N
EKVX = tested on: EKVX
UO-31 = tested on: UO-31
BT-549 = tested on: BT-549
SN12C = tested on: SN12C
UACC-62 = tested on: UACC-62
COLO 205 = tested on: COLO 205
DU-145 = tested on: DU-145
MDA-MB-435 = tested on: MDA-MB-435
SK-MEL-2 = tested on: SK-MEL-2
NCI-H460 = tested on: NCI-H460
KM12 = tested on: KM12
RXF 393 = tested on: RXF 393
NCI-H226 = tested on: NCI-H226
OVCAR-3 = tested on: OVCAR-3
CCRF-CEM = tested on: CCRF-CEM
NCI-H522 = tested on: NCI-H522

SMILES	GI50 (Hs-578T)	GI50 (SK-OV-3)	GI50 (HCT-116)	GI50 (MDA-N)	GI50 (EKVX)	GI50 (UO-31)	GI50 (BT-549)	GI50 (SN12C)	GI50 (UACC-62)	GI50 (COLO 205)	GI50 (DU-145)	GI50 (MDA-MB-435)	GI50 (SK-MEL-2)	GI50 (NCI-H460)	GI50 (KM12)	GI50 (RXF 393)	GI50 (NCI-H226)	GI50 (OVCAR-3)	GI50 (CCRF-CEM)	GI50 (NCI-H522)
Oc1cc(/C=C/c2ccccc2)nc2cc3c(cc12)OCO3	3.78 µM (inactive)	4.63 µM (inactive)	3.19 µM (inactive)	2.03 µM (inactive)	6.12 µM (inactive)	6.01 µM (inactive)	5.73 µM (inactive)	6.04 µM (inactive)	3.19 µM (inactive)	2.38 µM (inactive)	7.06 µM (inactive)	1.98 µM (inactive)	3.72 µM (inactive)	3.1 µM (inactive)	3.99 µM (inactive)					
CCn1c(-c2c(Cl)cc(O)cc2Cl)cc2c(Cl)cc(O)cc21	5.07 µM (inactive)	7.36 µM (inactive)	4.26 µM (inactive)		13.2 µM (inactive)	7.83 µM (inactive)	4.5 µM (inactive)	13.3 µM (inactive)	8.49 µM (inactive)	15.2 µM (inactive)	4.48 µM (inactive)	1.67 µM (inactive)	4.02 µM (inactive)	3.56 µM (inactive)	5.07 µM (inactive)	2.33 µM (inactive)	26.4 µM (inactive)	6.08 µM (inactive)	6.04 µM (inactive)	1.72 µM (inactive)
CCCc1cn2c(/C=N/NC(=N)N)c(-c3ccc([N+](=O)[O-])cc3)nc2s1	2.33 µM (inactive)	1.79 µM (inactive)	0.377 µM (active)		1.95 µM (inactive)	1.91 µM (inactive)	1.92 µM (inactive)	1.58 µM (inactive)	1.82 µM (inactive)	0.891 µM (active)	1.77 µM (inactive)	1.63 µM (inactive)	2.13 µM (inactive)	1.93 µM (inactive)	1.52 µM (inactive)	1.73 µM (inactive)	2 µM (inactive)	0.548 µM (active)	0.277 µM (active)	2.08 µM (inactive)
COc1ccc(-c2c(C#N)c(-c3ccc(C)cc3)n(NS(=O)(=O)c3ccccc3)c(=O)c2C#N)cc1	33.7 µM (inactive)	84.3 µM (inactive)	42.6 µM (inactive)	70.8 µM (inactive)	53.5 µM (inactive)		25.2 µM (inactive)	65.3 µM (inactive)	38.5 µM (inactive)	> 100 µM (inactive)		73.6 µM (inactive)	50.8 µM (inactive)	45.8 µM (inactive)	46.3 µM (inactive)	36.2 µM (inactive)	> 100 µM (inactive)	30.9 µM (inactive)	23 µM (inactive)	87.7 µM (inactive)
CC1CNC(NS(=O)(=O)c2cc(C(=O)Nc3ccccc3)c(Cl)cc2S)=NN1 (configuration not stated)		81.5 µM (inactive)	30.5 µM (inactive)	24.9 µM (inactive)	> 100 µM (inactive)	77.8 µM (inactive)	97.3 µM (inactive)	> 100 µM (inactive)	43.2 µM (inactive)	48.6 µM (inactive)	> 100 µM (inactive)	17.7 µM (inactive)	22.2 µM (inactive)	63 µM (inactive)	33.3 µM (inactive)		44.7 µM (inactive)	41.4 µM (inactive)	32.8 µM (inactive)	23.4 µM (inactive)
C[n+]1ccc2/c(=C\C#N)c3ccccc3n21		30.6 µM (inactive)	29.7 µM (inactive)	32.5 µM (inactive)	24.9 µM (inactive)	> 100 µM (inactive)	16.6 µM (inactive)	27.9 µM (inactive)	34.8 µM (inactive)	19.7 µM (inactive)	15.8 µM (inactive)	23.3 µM (inactive)	30.8 µM (inactive)	31 µM (inactive)	19.2 µM (inactive)	38.1 µM (inactive)	32.5 µM (inactive)	14.6 µM (inactive)	20 µM (inactive)	24.5 µM (inactive)
Cc1ccc(S(=O)(=O)NC(=O)NC(Cc2ccc(O)c(O)c2)C(=O)O)cc1 (configuration not stated)			> 100 µM (inactive)	> 100 µM (inactive)	> 100 µM (inactive)	> 100 µM (inactive)	> 100 µM (inactive)	> 100 µM (inactive)	> 100 µM (inactive)	> 100 µM (inactive)	> 100 µM (inactive)	> 100 µM (inactive)	> 100 µM (inactive)	> 100 µM (inactive)	> 100 µM (inactive)	14 µM (inactive)	> 100 µM (inactive)	> 100 µM (inactive)	25.1 µM (inactive)	> 100 µM (inactive)
COc1cc(OC)c2c(O)c(S(=O)(=O)c3ccc(C)cc3)c(=O)oc2c1	94.6 µM (inactive)	> 100 µM (inactive)	77.8 µM (inactive)		> 100 µM (inactive)	> 100 µM (inactive)	> 100 µM (inactive)	> 100 µM (inactive)	> 100 µM (inactive)	> 100 µM (inactive)	> 100 µM (inactive)	> 100 µM (inactive)	> 100 µM (inactive)	> 100 µM (inactive)	92.5 µM (inactive)	> 100 µM (inactive)	> 100 µM (inactive)	> 100 µM (inactive)	78.2 µM (inactive)	> 100 µM (inactive)
COc1ccc(/C=N/NC(=O)C2=C(N)N(c3ccccc3)C(=C(C#N)C#N)S2)cc1	> 100 µM (inactive)	57 µM (inactive)	> 100 µM (inactive)	> 100 µM (inactive)	> 100 µM (inactive)	> 100 µM (inactive)	> 100 µM (inactive)	> 100 µM (inactive)	> 100 µM (inactive)	> 100 µM (inactive)	> 100 µM (inactive)	> 100 µM (inactive)		> 100 µM (inactive)	> 100 µM (inactive)		> 100 µM (inactive)	60.4 µM (inactive)	> 100 µM (inactive)	> 100 µM (inactive)
CC(Cn1c2c(c3cc(O)ccc31)CCc1ccc(O)cc1-2)N(C)C (configuration not stated)	17.1 µM (inactive)	25.2 µM (inactive)	19.7 µM (inactive)	18.8 µM (inactive)	19.8 µM (inactive)	13.2 µM (inactive)	16.3 µM (inactive)	29.4 µM (inactive)	15.8 µM (inactive)			17.9 µM (inactive)	16.4 µM (inactive)	15.1 µM (inactive)	15.9 µM (inactive)	22.1 µM (inactive)	14.4 µM (inactive)	15.6 µM (inactive)	53.3 µM (inactive)	
COC(=O)C(=O)C(C(=O)C(N)=O)c1nc2ccc(C(=O)c3ccccc3)cc2nc1O (configuration not stated)	80.5 µM (inactive)	> 100 µM (inactive)	> 100 µM (inactive)	> 100 µM (inactive)	> 100 µM (inactive)		> 100 µM (inactive)	> 100 µM (inactive)	> 100 µM (inactive)			65 µM (inactive)	> 100 µM (inactive)	74.5 µM (inactive)	46.9 µM (inactive)	69.7 µM (inactive)	> 100 µM (inactive)	> 100 µM (inactive)	> 100 µM (inactive)	40.7 µM (inactive)
Clc1ccc(-c2cn3c(nc4ccccc43)c(/C=C/c3ccco3)n2)cc1	14.8 µM (inactive)	90.2 µM (inactive)	41.8 µM (inactive)	72.8 µM (inactive)		48.2 µM (inactive)	51.4 µM (inactive)	50 µM (inactive)	41.8 µM (inactive)	41.7 µM (inactive)	75.7 µM (inactive)	23.2 µM (inactive)	18.1 µM (inactive)	23.5 µM (inactive)	29.5 µM (inactive)	33.7 µM (inactive)	> 100 µM (inactive)	34.4 µM (inactive)		
CCN(CC)CCCNc1nc2ccccc2[n+]([O-])n1			> 100 µM (inactive)	> 100 µM (inactive)		> 100 µM (inactive)	> 100 µM (inactive)	> 100 µM (inactive)	> 100 µM (inactive)	> 100 µM (inactive)	> 100 µM (inactive)	> 100 µM (inactive)	> 100 µM (inactive)	> 100 µM (inactive)	> 100 µM (inactive)	> 100 µM (inactive)	> 100 µM (inactive)	> 100 µM (inactive)	> 100 µM (inactive)	> 100 µM (inactive)
C/C(=C\COc1cc(O)c2c(c1)C(=O)c1cc(C)cc(O)c1C2=O)CCC1OC1(C)C (configuration not stated)	24.1 µM (inactive)	> 100 µM (inactive)	77.8 µM (inactive)	> 100 µM (inactive)	> 100 µM (inactive)	> 100 µM (inactive)	26.7 µM (inactive)	> 100 µM (inactive)	40.3 µM (inactive)	> 100 µM (inactive)	> 100 µM (inactive)	> 100 µM (inactive)	> 100 µM (inactive)	10.3 µM (inactive)	> 100 µM (inactive)	30.2 µM (inactive)		> 100 µM (inactive)	11.2 µM (inactive)	69.8 µM (inactive)
O=C1NC(Cc2c[nH]c3ccccc23)C(=O)N2C(C3CCCCC3)c3[nH]c4ccccc4c3C[C@@H]12 (some centres not stated)	2.18 µM (inactive)		10.2 µM (inactive)	11.1 µM (inactive)	16 µM (inactive)	14.1 µM (inactive)	14.9 µM (inactive)	8.26 µM (inactive)	15.3 µM (inactive)	17.2 µM (inactive)	24.3 µM (inactive)	11 µM (inactive)	14.4 µM (inactive)		11.8 µM (inactive)	5.98 µM (inactive)	24.2 µM (inactive)	2.38 µM (inactive)		7.98 µM (inactive)
